Laboratory results published in ChEMBL document CHEMBL1149210, “A novel series of potent and selective small molecule inhibitors of the complement component C1s” (Bioorg Med Chem Lett, 2004).

Columns and labels:
[1] = biological target: T1, Complement C1s subcomponent (Homo sapiens, UniProt P09871); experiment: In vitro binding affinity towards human Complement C1s subcomponent
T1 sequence (P09871 whole entry): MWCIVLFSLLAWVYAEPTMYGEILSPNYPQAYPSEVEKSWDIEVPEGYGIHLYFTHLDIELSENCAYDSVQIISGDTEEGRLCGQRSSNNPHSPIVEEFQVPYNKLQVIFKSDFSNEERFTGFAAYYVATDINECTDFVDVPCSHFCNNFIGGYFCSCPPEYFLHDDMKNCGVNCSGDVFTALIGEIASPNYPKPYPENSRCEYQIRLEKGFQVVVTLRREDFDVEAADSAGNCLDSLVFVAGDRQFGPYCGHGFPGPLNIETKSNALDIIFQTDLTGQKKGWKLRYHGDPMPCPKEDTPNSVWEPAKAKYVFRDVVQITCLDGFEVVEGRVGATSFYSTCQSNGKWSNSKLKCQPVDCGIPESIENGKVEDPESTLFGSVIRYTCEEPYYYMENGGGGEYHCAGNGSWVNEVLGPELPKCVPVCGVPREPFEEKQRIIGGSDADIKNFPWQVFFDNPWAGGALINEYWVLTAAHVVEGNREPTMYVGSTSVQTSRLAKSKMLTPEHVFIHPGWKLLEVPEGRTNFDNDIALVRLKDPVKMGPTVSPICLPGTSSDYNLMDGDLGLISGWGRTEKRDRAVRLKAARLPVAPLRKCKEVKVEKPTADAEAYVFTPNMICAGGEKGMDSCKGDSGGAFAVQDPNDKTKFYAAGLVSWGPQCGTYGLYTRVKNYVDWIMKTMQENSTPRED

Coagulation factor X = Coagulation factor X (Homo sapiens, UniProt P00742); experiment: In vitro binding affinity towards Coagulation factor X was determined
[2] = In vitro binding affinity towards human Complement C1r subcomponent
Plasminogen = Plasminogen (Rattus norvegicus, UniProt Q01177); experiment: In vitro binding affinity towards plasmin was determined
Prothrombin = Prothrombin (Homo sapiens, UniProt P00734); experiment: In vitro binding affinity towards thrombin was determined
Serine protease 1 = Serine protease 1 (Homo sapiens, UniProt P07477); experiment: In vitro binding affinity towards trypsin was determined
Serine protease 1, sequence (P07477 whole entry): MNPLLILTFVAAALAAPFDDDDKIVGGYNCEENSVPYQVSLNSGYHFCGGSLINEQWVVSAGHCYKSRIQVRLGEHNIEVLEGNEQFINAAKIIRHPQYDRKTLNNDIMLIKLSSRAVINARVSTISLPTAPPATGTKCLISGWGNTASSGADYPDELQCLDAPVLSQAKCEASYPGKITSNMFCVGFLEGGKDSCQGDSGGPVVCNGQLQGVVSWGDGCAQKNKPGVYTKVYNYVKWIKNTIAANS

Coagulation factor X, sequence (P00742 41-179 limits assumed): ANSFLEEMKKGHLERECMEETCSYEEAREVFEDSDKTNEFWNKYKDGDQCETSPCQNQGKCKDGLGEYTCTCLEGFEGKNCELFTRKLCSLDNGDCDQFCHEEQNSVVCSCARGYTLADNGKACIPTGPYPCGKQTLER
Coagulation factor X, sequence (P00742 235-488 limits assumed): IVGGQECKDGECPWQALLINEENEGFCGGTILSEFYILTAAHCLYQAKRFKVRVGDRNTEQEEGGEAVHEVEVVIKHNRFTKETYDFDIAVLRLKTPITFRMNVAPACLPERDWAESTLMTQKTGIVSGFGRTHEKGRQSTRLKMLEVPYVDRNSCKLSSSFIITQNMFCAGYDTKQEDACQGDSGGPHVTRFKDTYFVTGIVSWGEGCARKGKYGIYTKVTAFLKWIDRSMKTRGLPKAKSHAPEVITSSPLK
Plasminogen, sequence (Q01177 97-581 limits assumed): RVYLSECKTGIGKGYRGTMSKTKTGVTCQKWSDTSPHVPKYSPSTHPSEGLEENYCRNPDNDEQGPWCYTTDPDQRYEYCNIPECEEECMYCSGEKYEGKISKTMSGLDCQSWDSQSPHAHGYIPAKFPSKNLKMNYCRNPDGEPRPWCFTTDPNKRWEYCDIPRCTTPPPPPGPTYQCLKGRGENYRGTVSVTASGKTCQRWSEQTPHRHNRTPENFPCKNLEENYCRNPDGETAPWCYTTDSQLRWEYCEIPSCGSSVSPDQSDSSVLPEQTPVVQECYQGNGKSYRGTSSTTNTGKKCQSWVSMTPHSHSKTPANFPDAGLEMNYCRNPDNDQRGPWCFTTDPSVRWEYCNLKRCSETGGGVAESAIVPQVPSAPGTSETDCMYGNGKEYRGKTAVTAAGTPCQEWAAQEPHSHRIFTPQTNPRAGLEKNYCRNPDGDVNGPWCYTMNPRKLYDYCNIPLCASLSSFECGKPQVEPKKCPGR
Plasminogen, sequence (Q01177 582-812 limits assumed): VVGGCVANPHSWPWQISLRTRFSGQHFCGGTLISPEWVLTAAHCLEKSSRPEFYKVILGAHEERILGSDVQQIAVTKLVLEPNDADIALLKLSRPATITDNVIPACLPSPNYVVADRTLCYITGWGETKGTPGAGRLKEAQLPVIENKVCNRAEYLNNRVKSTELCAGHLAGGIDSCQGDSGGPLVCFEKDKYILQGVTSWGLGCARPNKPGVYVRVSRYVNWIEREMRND

Ki [1] [nM] | Compound | also measured
1500 | CSc1sc(C(=N)N)cc1-c1nc(-c2cnn(-c3ccccc3)c2OCCC(C)C)cs1 | –
460 | CSc1sc(C(=N)N)cc1-c1nc(-c2cnn(C)c2)cs1 | –
530 | CSc1sc(C(=N)N)cc1-c1nc(-c2cnn(-c3ccccc3)c2OCC2CCC2)cs1 | –
12500 | N=C(N)c1cc(-c2nc(-c3ccccc3)cs2)c(C(F)(F)F)s1 | –
> 20000 | N=C(N)c1cc(-c2nc(-c3ccccc3)cs2)c(SCc2ccccc2)s1 | –
> 20000 | CCSc1sc(C(=N)N)cc1-c1nc(-c2ccccc2)cs1 | –
> 28000 | CS(=O)(=O)c1sc(C(=N)N)cc1-c1nc(-c2ccccc2)cs1 | –
6000 | Cc1sc(C(=N)N)cc1-c1nc(-c2ccccc2)cs1 | –
190 | CCCc1nn(C)cc1-c1csc(-c2cc(C(=N)N)sc2SC)n1 | –
560 | CSc1sc(C(=N)N)cc1-c1nc(-c2ccccc2)cs1 | –
850 | COc1ccccc1-c1csc(-c2cc(C(=N)N)sc2SC)n1 | –
4700 | CSc1sc(C(=N)N)cc1-c1nc(C2CCCCC2)cs1 | –
3000 | CSc1sc(C(=N)N)cc1-c1nc(-c2ccc(Cl)cc2Cl)cs1 | –
1020 | CSc1sc(C(=N)N)cc1-c1nc(-c2cccnc2Cl)cs1 | –
900 | COc1ccc(-c2csc(-c3cc(C(=N)N)sc3SC)n2)cc1 | –
436 | CSc1sc(C(=N)N)cc1-c1nc(-c2ccc(Cl)cc2)cs1 | –
640 | COc1ccc(-c2csc(-c3cc(C(=N)N)sc3SC)n2)c(OC)c1 | –
960 | CSc1sc(C(=N)N)cc1-c1nc(-c2cccc(C)c2)cs1 | –
870 | CSc1sc(C(=N)N)cc1-c1nc(-c2cnccc2Cl)cs1 | –
520 | CSc1sc(C(=N)N)cc1-c1nc(COc2ccccc2)cs1 | –

Ki [1] [nM] | Compound | also measured
450 | CSc1sc(C(=N)N)cc1-c1nc(-c2csc3ccccc23)cs1 | –
850 | CSc1sc(C(=N)N)cc1-c1nc(-c2ccccc2C)cs1 | –
1000 | CSc1sc(C(=N)N)cc1-c1nc(-c2ccc([N+](=O)[O-])cc2)cs1 | –
470 | COc1cccc(-c2csc(-c3cc(C(=N)N)sc3SC)n2)c1 | –
1060 | CSc1sc(C(=N)N)cc1-c1nc(Cc2ccccc2)cs1 | –
490 | CSc1sc(C(=N)N)cc1-c1nc(-c2ccc3ccccc3c2)cs1 | –
420 | CSc1sc(C(=N)N)cc1-c1nc(-c2ccc(C)cc2)cs1 | –
700 | CSc1sc(C(=N)N)cc1-c1nc(-c2cccs2)cs1 | –
70 | CCCc1c(-c2csc(-c3cc(C(=N)N)sc3SC)n2)cnn1-c1ccccn1 | Ki (Coagulation factor X): 5000 nM; Ki [2]: > 50000 nM; Ki (Plasminogen): 5000 nM; Ki (Prothrombin): > 50000 nM; Ki (Serine protease 1): 180 nM
330 | CCCc1c(-c2csc(-c3cc(C(=N)N)sc3SC)n2)cnn1C | –
60 | CCCc1c(-c2csc(-c3cc(C(=N)N)sc3SC)n2)cnn1-c1ccccc1 | –
90 | CCOc1c(-c2csc(-c3cc(C(=N)N)sc3SC)n2)cnn1-c1ccccc1 | –
> 20000 | N=C(N)c1cc(-c2nc(-c3ccccc3)cs2)cs1 | –
14400 | COc1sc(C(=N)N)cc1-c1nc(-c2ccccc2)cs1 | –
3250 | CSc1sc(C(=N)N)cc1-c1ncc(-c2ccccc2)s1 | –
150 | CSc1sc(C(=N)N)cc1-c1nc(-c2cnn(-c3ccccc3)c2)cs1 | –
860 | CSc1sc(C(=N)N)cc1-c1nc(-c2ccc(Cl)c([N+](=O)[O-])c2)cs1 | –
15400 | CSc1sc(C(=N)N)cc1-c1nc(-c2ccc(-c3ccccc3)cc2)cs1 | –
3000 | CCc1sc(C(=N)N)cc1-c1nc(-c2ccccc2)cs1 | –
